Measured values taken from PMC7957705 (Molecules, 2021).
Where a SMILES comes first, the peptide text is derived from it. Bridges are numbered along the chain shown (N, C = ends). Triazole bridges read from a SMILES are 1,4-linked. [ ]: non-standard residue; d: D form. The star is where a group is joined. Benzoyl(4-guanidino) = N=C(N)Nc1ccc(C(=O)*)cc1; Aha = [N-]=[N+]=NCC[C@H](N)C(=O)O; β3hV = CC(C)[C@H](N)CC(=O)O; Nle = CCCC[C@H](N)C(=O)O; Pra = C#CC[C@H](N)C(=O)O

Legend:
[1] = target: T1, human MCH-R1 (Homo sapiens, UniProt Q99705); test: Binding displacement of [125I]-[Phe13,Tyr19]-MCH at membranes expressing human MCH-R1
T1 construct: expressed in transfected cells
T1 sequence (Q99705 whole entry): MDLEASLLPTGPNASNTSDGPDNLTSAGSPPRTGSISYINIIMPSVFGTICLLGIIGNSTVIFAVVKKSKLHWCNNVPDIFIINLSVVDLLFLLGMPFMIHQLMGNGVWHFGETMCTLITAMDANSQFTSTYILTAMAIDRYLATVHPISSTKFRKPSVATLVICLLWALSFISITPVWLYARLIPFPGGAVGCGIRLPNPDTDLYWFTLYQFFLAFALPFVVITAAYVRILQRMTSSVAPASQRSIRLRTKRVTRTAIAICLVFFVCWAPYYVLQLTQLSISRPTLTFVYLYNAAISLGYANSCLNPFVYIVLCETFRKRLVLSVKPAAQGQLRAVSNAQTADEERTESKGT
Method: Stable cell lines were obligatory for all receptor programs. We cloned the human receptor and established the cell line as previously described. In brief, HEK293 (HEK) cells were grown in Dulbecco’s Modified Eagle medium (DMEM) supplemented with 10% fetal calf serum, 2 mM glutamine, 100 IU/mL penicillin and […] streptomycin. They were seeded at 5 × 10^6 cells in T75 cm^2 culture flasks. One day later, they were transfected with […] of the pcDNA3.1 (Invitrogen, Groningen, The Netherlands) containing the human MCH-R1 using lipofectamine (Life Technologies, Cergy Pontoise, France), as previously described. One day later, cells were trypsinized, resuspended in a complete DMEM medium containing […] of geneticin and seeded at different dilutions in 96-well plates which were kept for 2 to 3 weeks in a humidified CO2 incubator. At the end of the selection period, isolated clones were picked up, amplified, and further characterized by cyclic AMP experiments. For each cell line, one positive clone was subcloned before being used for all of the cyclic AMP, [^35S]-GTPγS and receptor binding experiments necessary to characterize them. The stable HEK293 cell line expressing the human MCH-R1 was HEK-hMCH-R1.
Membrane preparations were classically made as previously described. In brief, the HEK-hMCH-R cell line was grown to confluency, harvested in PBS buffer containing 2 mM EDTA and centrifuged at 10,000× g for 5 min (4°C). The resulting pellet was suspended in 20 mM Hepes buffer (pH 7.5), containing 5 mM EGTA and homogenized using a Kinematica polytron. The homogenate was then centrifuged (95,000× g, 30 min, 4 °C) and the resulting pellet was suspended in 50 mM HEPES buffer (pH 7.5), containing 10 mM MgCl2 and 2 mM EGTA. Aliquots of membrane preparations were stored at −80 °C until use. Binding has been described in numerous publications and the test was based on Mac Donald et al.’s description. […] Nonspecific binding is determined in the presence of 0.1 μM MCH. […] The filters are dried and then counted for radioactivity in a scintillation counter (Topcount, Packard) using a scintillation cocktail (Microscint 0, Packard). The results are expressed as percentage inhibition of the control radioligand specific binding. The standard reference compound is MCH, which was tested in each experiment at 8 concentrations to obtain a competition curve from which its IC50 is calculated. The high level of assay robustness and reproducibility of each control monitored over several decades (internal data base, Eurofins) and included in every assay ensure results’ reliability even when performed only twice. […]

[2] = target: T1, human MCH-R1; test: MCH-induced cytosolic Ca2+ ion mobilization, antagonist effect; type: cell-based
Method: The functional assay was run onto cells expressing the hMCH-R1 receptor, as described in Wang et al.. In brief, the cells are suspended in DMEM buffer (Invitrogen), then distributed in microplates at a density of 4.104 cells/well. The fluorescent probe (Fluo4 Direct, Invitrogen) mixed with probenecid in Hanks’ Balanced Salt solution (HBSS) (Invitrogen) complemented with 20 mM HEPES (Invitrogen) (pH 7.4) is then added into each well and equilibrated with the cells for 60 min at 37 °C, then 15 min at 22 °C. Then, the assay plates are positioned in a microplate reader (CellLux, PerkinElmer) which is used for the addition of the test compound, reference agonist or HBSS buffer (basal control), and the measurements of changes in fluorescence intensity, which varies proportionally to the free cytosolic Ca^2+ ion concentration. For stimulated control measurements, MCH at 300 nM is added in separate assay wells. The results are expressed as a percentage of the control response to 300 nM MCH. The standard reference agonist is MCH, which is tested in each experiment at several concentrations to generate a concentration-response curve from which its EC50 value is calculated. For the antagonist effect, the results are expressed as a percentage inhibition of the control response to 30 nM MCH, which was added to all tested wells and controls 5 min after the candidate products.

[3] = tested on: fa/fa rats; test: Genetic model of obesity (fa/fa rats); type: in vivo, rat; conditions: data not shown

In the case of CCCC[C@@H]1NC(=O)[C@@H](NC(=O)c2ccc(NC(=N)N)cc2)CCn2cc(nn2)C[C@@H](C(=O)N[C@@H](Cc2c[nH]c3ccccc23)C(=O)O)NC(=O)[C@@H]2CCCN2C(=O)[C@H](CCCNC(=N)N)NC(=O)C[C@H](C(C)C)NC(=O)[C@H](CCCNC(=N)N)NC(=O)[C@H](CC(C)C)NC1=O [GPS18169] ({Benzoyl(4-guanidino)}-[Aha][Nle]LR[β3hV]RP[Pra]W-OH; triazole 1-8), the “affinity at the MCH-R1 receptor (in words)” value [1] is reported as “low nanomolar range”, the “antagonistic functionality (in words)” value [2] is reported as “high picomolar range” and the Ki ([2]; antagonism of MCH-induced cytosolic Ca2+ mobilization, read-out: Ki (functionality, antagonism at MCH-R1)) is reported as 0.028 nM. The “changes between treated and untreated animals” value [3] was “no changes were recorded”.
